Assay results: patent US11478445B2, “Method for treating acute myeloid leukemia” (Bionomics Limited, priority 2017, dated 2022)

Key:
Format in all cases: cell-based, human
[1] = tested on: healthy control (HC) BMMNC samples; assay: Viability (Annexin V/7AAD) assay, healthy control samples
Experimental: (§1) Cryopreserved mononuclear cells (MNC from BM or leukapheresis samples) were thawed in a water bath at 37° C. and cell suspension transferred to a 50 mL tube. 20 mL of IMDM media (Sigma, 13390) supplemented with 20% FBS (JRH Biosciences), 50 U/mL DNase I (Sigma), 100 IU/mL penicillin (Sigma), 100 μg/mL streptomycin (Sigma) and 2 mM L-glutamine (Sigma) was added dropwise to the cells while the tube was being vortexed slowly (or mixed by hand). The cells were centrifuged at 400 g for 5 min, supernatant was discarded and the cells were washed once with 20 mL PBS. After the wash, the cells were resuspended in 25 mL IMDM (Sigma, 13390) supplemented with 20% FBS (JRH Biosciences), 100 IU/mL penicillin (Sigma), 100 μg/mL streptomycin (Sigma) and 2 mM L-glutamine (Sigma), and incubated overnight for recovery. The next morning, viability was determined by trypan blue exclusion and samples with viability lower than 85% underwent dead cell removal by density gradient centrifugation as follows: 15 mL of Lymphoprep (AXIS-Shield) was transferred to a 50 mL tube and the cell suspension (25 mL) carefully overlayed (so as not to disturb the interface mixing with the Lymphoprep). The tubes were centrifuged at 800 g for 20 min with acceleration set at 5 (half of the maximum) and no brake. MNC layer (formed in the interface between the media and the Lymphoprep) was transferred with a disposable Pasteur pipet into a 50 mL tube containing 20 mL PBS. […] Viability and cell density were determined by trypan blue exclusion and cells were plated for respective experiments as described in the Results section.
(§2) 2×10^5 cells (200 μL) were harvested in 5 mL tubes and washed 3 times with PBS. […] Results were analysed with FCS Express 4 Flow Research Edition software (De Novo Software). […]

[2] = tested on: Caspase 3/7 activity in primary AML MNC samples; assay: Caspase-Glo 3/7 assay in primary AML samples
Experimental: as §1, with “After the wash, the cells were resuspended in 25 mL IMDM (Sigma, 13390) supplemented with 20% FBS (JRH Biosciences), 100 IU/mL penicillin (Sigma), 100 μg/mL streptomycin (Sigma) and 2 mM L-glutamine (Sigma), and incubated overnight for recovery.” left out, “Lymphoprep).” for “Lymphoprep). The tubes were centrifuged at 800 g for 20 min with acceleration set at 5 (half of the maximum) and no brake. MNC layer (formed in the interface between the media and the Lymphoprep) was transferred with a disposable Pasteur pipet into a 50 mL tube containing 20 mL PBS.”
10^4 cells (10 μL) of each sample/treatment were aliquoted in triplicate wells of a 96-well plate (white wall OptiPlate 96, Perkin Elmer) containing 40 μL complete media. […] Luminescence was measured with a FLOUstar OPTIMA plate reader (BMG Labtech). […]

[3] = tested on: GPR56+ LSC containing population of AML samples; assay: LSC detection by flow cytometry (CD34, CD38, GPR56)
Experimental: 8×10^5 cells (800 μL) were harvested in 5 mL tubes and fixed with 1.6% formaldehyde for 10 min at room temperature. The samples were then washed once with PBS and once with PBS/1% BSA. The cell pellets were resuspended in 100 μL PBS/1% BSA containing 5 μL of anti-CD34-APC (BD Biosciences, clone 8G12, catalogue 340441, lot 6183704), 5 μL of anti-CD38-PECy7 (BD Biosciences, 335790, lot 3353807) and 5 μL of anti-GPR56-PE (Biolegend, 358204, lot B208353) and incubated at room temperature for 1 h in the dark. Finally, cells were washed twice with PBS and resuspended in 200 μL of PBS for analysis on an LSRFortessa (BD Biosciences) flow cytometer. Results were analysed with FCS Express 4 Flow Research Edition software (De Novo Software).
LSC analysis. AML BMMNC samples were first gated for viable cells and then the fraction of GPR56+ cells was determined. According to the report by Pabst and collaborators (Pabst et al, Blood 2016), in CD34^high AML samples the GPR56+ population containing LSCs is present within the CD34+ cells, while in CD34^low AML samples the GPR56+ population containing LSCs is present in both CD34+ and CD34− cell populations. Therefore, the LSC containing subpopulation was estimated from the CD34+/GPR56+ gate for AML235, and from the GPR56+/CD34+ and GPR56+/CD34− gates in AML136 and AML480 (FIG. 6A). A decrease in these subpopulations in response to EX 1 would be consistent with the drug targeting the important LSC-containing compartment. […] On the other hand, OXi4503 treatment, when compared to vehicle control (DMSO), had little effect on AML136 and no effect on AML235 and AML480 (FIG. 6B).

[4] = tested on: primary AML samples (MNC); assay: Viability (Annexin V/7AAD) assay, AML samples
Experimental: as §1, with “After the wash, the cells were resuspended in 25 mL IMDM (Sigma, 13390) supplemented with 20% FBS (JRH Biosciences), 100 IU/mL penicillin (Sigma), 100 μg/mL streptomycin (Sigma) and 2 mM L-glutamine (Sigma), and incubated overnight for recovery.” left out, “Lymphoprep).” for “Lymphoprep). The tubes were centrifuged at 800 g for 20 min with acceleration set at 5 (half of the maximum) and no brake. MNC layer (formed in the interface between the media and the Lymphoprep) was transferred with a disposable Pasteur pipet into a 50 mL tube containing 20 mL PBS.”
as §2

caspase 3/7 activity ([2]; AML480, 24 h)	caspase 3/7 activity compared to DMSO ([2]; all the AML samples, 48 h)	Compound	viability (live cells, Annexin V/7AAD) ([1]; 48 h)	viability (live cells, Annexin V/7AAD) ([1]; up to 72 h)	GPR56+ LSC containing cell population ([3]; AML136, AML235, AML480, 48 h)	concentration at which the LSC population is decreased (as low as) ([3]; AML samples, 48 h, FIG. 6C)	viability (live cells, Annexin V/7AAD) ([4]; 48 h to 72 h)	response to treatment (viability) [1]	effect on GPR56+ LSC containing population vs DMSO ([3]; AML136, 48 h)	effect on GPR56+ LSC containing population vs DMSO ([3]; AML235 and AML480, 48 h)	response to treatment (viability) [4]
some increase in caspase activity	increase in caspase activity	COc1cc(C(=O)c2c(C)oc3c(O)c(OC)ccc23)cc(OC)c1OC [EX 1, 2-Methyl-7-hydroxy-3-(3,4,5-trimethoxybenzoyl)-6-methoxybenzofuran]	some reduced viability	viability remained stable	affected at different rates	20 nM	viability decreasing substantially				
		COc1cc(/C=C\c2ccc(OC)c(OP(=O)(O)O)c2OP(=O)(O)O)cc(OC)c1OC [OXi4503, reference compound]						did not show a response	little effect	no effect	did not show a response
